Patent US10953109B2, “Application of GPR45 gene” (FUDAN UNIVERSITY, priority 2015, dated 2021)
“Also recorded” adds a separate entry of the source.

Key:
GPR45 = test: RNA interference of GPR45 in primary culture cells of hypothalamuses of wild type fetal mice, RT-PCR; format: cell-based; details: 10 pmol siRNA per well, transfection 72 h
Method: […]
For detection of POMC expression, primary cell RNA was extracted to perform reverse transcription to obtain cDNA, then real-time quantitative PCR detection was performed, and experiment steps were the same as embodiment 11. […]

GPR45^PB1/PB1 mice = test: MTII injected daily into third intraventricular of adult GPR45 homozygote obese mice; body weight and fat; format: in vivo
Method: (§1) MTII is an agonist of MC3R/MC4R, can simulate a function of a POMC shorn product α-MSH and plays a role of suppressing appetite and promoting energy metabolism. […] When the mutant mice and wild type mice of control groups were injected with equal amounts of normal saline, the body weight was not influenced.

wild type mice = test: MTII injected into third intraventricular of wild type mice; body weight and fat; format: in vivo
Method: as §1

[1] = mutant mice, six days after administration, compared with normal saline control
[2] = wild type mice injected with MTII, six days

## GPR45-siRNA: siRNA, sense 5′-CCGACAUCAUGCUGUCUUUAUTT-3′ (SEQ ID NO. 29), antisense 5′-AUAAAGACAGCAUGAUGUCGGTT-3′ (SEQ ID NO. 30) (chemistry not given here)
GPR45
  expression amount of GPR45 decreased: 53.4%
  expression amount of POMC decreased: 30.7%

## melanotan-2 [MTII]
GPR45^PB1/PB1 mice; GPR45^PB1/PB1 mice, three days
  body weight after three days after MTII was injected: reduced to the level of the body weight of the wild type mice
GPR45^PB1/PB1 mice; adult male GPR45 homozygote mice
  fat content (FIG. 24B): fat content decreases
GPR45^PB1/PB1 mice; adult male GPR45 homozygote mice, after six days
  body weight (FIG. 24A): body weight decreases
GPR45^PB1/PB1 mice; daily injection, adult obese mice
  increase of the body weight: could be suppressed
GPR45^PB1/PB1 mice; intraventricular injection
  obesity caused by GPR45 mutations: obesity is suppressed; also recorded: effectively reverses the obesity
GPR45^PB1/PB1 mice; mutant mice, six days after MTII was injected
  body weight decreased relative to the body weight before injection: 13.6%
GPR45^PB1/PB1 mice; [1]
  weight of gonadal white adipose tissues decreased: 48.5%
  weight of interscapular brown adipose tissues decreased: 50.4%
  weight of retroperitoneal white adipose tissues decreased: 66.7%
Wild type mice; [2]
  weight of gonadal white adipose tissues decreased: 44.1%
  weight of interscapular brown adipose tissues increased: 0.4%
  weight of retroperitoneal white adipose tissues decreased: 50.9%
Wild type mice; wild type mice, six days after MTII was injected
  body weight decreased relative to the body weight before injection: 1.8%
